Reference: patent US20070110818A1, “Milk fractions and milk preparations for treating and/or preventing cox-2 mediated diseases” (priority 2003, published 2007)

Molecular target: T1, COX-2 (Homo sapiens, UniProt P35354)
T1 construct: treated with 100 nM (nmol/l) phorbol 12-myristate 13-acetate for 6 h at 37° C. to induce COX-2 isoenzyme; endogenous in cells; host or cells: HUV-EC-C (ATCC CRL1730), PMA-induced
T1 sequence (P35354 18-604): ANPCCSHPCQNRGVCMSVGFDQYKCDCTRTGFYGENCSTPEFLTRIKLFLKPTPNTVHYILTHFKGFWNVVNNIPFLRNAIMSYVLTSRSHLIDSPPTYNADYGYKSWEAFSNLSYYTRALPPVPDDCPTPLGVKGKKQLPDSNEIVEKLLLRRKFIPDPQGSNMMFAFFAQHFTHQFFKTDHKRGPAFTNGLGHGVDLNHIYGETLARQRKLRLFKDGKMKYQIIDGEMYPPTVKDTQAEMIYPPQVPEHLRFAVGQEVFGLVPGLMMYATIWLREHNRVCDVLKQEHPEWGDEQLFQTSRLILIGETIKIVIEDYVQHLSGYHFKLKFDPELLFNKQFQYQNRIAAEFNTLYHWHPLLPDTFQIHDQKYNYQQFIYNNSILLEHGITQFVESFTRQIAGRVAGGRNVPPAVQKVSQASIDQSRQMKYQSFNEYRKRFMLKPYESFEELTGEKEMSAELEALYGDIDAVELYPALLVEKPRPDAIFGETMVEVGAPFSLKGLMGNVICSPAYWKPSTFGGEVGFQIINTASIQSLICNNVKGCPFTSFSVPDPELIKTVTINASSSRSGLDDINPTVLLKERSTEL
Test: COX-2 screening in PMA-induced HUV-EC-C cells (Prostaglandine-E2 production by RIA)
Assay type: cell-based
Protocol: HUV-EC-C cells (a permanent endothelial cell line derived from the vein of a normal human umbilical cord; ATCC CRL1730; M. Miralpeix, M. Camacho et al., Brit. J. Pharmacol. 121 (1997), 171-180), were seeded onto 96-well plates (RPMI 1640+10% FCS) and treated with 100 nM (nmol/l) phorbol 12-myristate 13-acetate for 6 h at 37° C. to induce COX-2 isoenzyme. 50 μM (μmol/l) arachidonic acid were then added and the cells were incubated in the presence of test compounds or mixtures for 30 min at 37° C. Prostaglandine-E2 production was measured by radioimmuno assay (RIA) and the radioactivity determined with a scintillation counter (Topcount, Packard) using a liquid scintillation cocktail (Packard).
The results obtained are expressed as a percent of control values and as a percent inhibition of control values obtained in the presence of the test compounds. The control values correspond to the COX-2 activity of HUV-EC-C cells after stimulation with Phorbol Myristate Acetate (PMA) during 6 hours at 37° C. (can be done also with Tumor Necrosis Factor type alpha: TNFα) in absence of test compound.
The concentration causing a half-maximal inhibition of control values (IC50 value) and Hill coefficients (nH) were determined for the reference compounds (cycloheximide) by nonlinear regression analysis of their inhibition curves. These parameters were obtained by Hill equation curve fitting. […]

cyclooxygenase-2 inhibiting activity (in words): no effect
SMILES: N[C@@H](CS)C(=O)O [Cysteine]
